Laboratory results reported in PubChem BioAssay (NCI).
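Each compound was tested at five concentrations against cells in 96-well plates for 48 hours. TGI: total growth inhibition.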

System: SK-MEL-2 melanoma
Assay: NCI tumour cell line growth inhibition, 48 h

| SMILES | TGI [µM] |
| --- | --- |
| CCOC(=O)N1CCC2(CC1)CC(=O)N(Nc1ccccc1)C2=O | > 100 |
| O=C1CNN=C(CSc2nc3ccc(I)cc3c(=O)n2Cc2ccccc2)N1 | 34.7 |
| [N-]=[N+]=NCC1OCC(O)C(OCc2ccccc2)C1OCc1ccccc1 (stereo unspecified) | > 100 |

System: SK-MEL-28 melanoma
Assay: NCI tumour cell line growth inhibition, 48 h

| SMILES | TGI [µM] |
| --- | --- |
| CC(C)N(C(=O)C12C3(C(=O)OC(C)(C)C)C4C5(C#N)C3C1(C(=O)OC(C)(C)C)C5C42C(=O)OC(C)(C)C)C(C)C (stereo unspecified) | > 100 |
| CCOC(=O)N1CCC2(CC1)CC(=O)N(Nc1ccccc1)C2=O | > 100 |
| O=C1CNN=C(CSc2nc3ccc(I)cc3c(=O)n2Cc2ccccc2)N1 | 44.4 |
| [N-]=[N+]=NCC1OCC(O)C(OCc2ccccc2)C1OCc1ccccc1 (stereo unspecified) | > 100 |

System: SK-MEL-5 melanoma
Assay: NCI tumour cell line growth inhibition, 48 h

| SMILES | TGI [µM] |
| --- | --- |
| O=C(Cn1nnc(-c2ccccc2)n1)N/N=C/c1cn(Cc2ccc(Cl)cc2Cl)c2ccccc12 | > 100 |
| CC(C)N(C(=O)C12C3(C(=O)OC(C)(C)C)C4C5(C#N)C3C1(C(=O)OC(C)(C)C)C5C42C(=O)OC(C)(C)C)C(C)C (stereo unspecified) | > 100 |
| CCOC(=O)N1CCC2(CC1)CC(=O)N(Nc1ccccc1)C2=O | > 100 |
| O=C1CNN=C(CSc2nc3ccc(I)cc3c(=O)n2Cc2ccccc2)N1 | 30.6 |
| [N-]=[N+]=NCC1OCC(O)C(OCc2ccccc2)C1OCc1ccccc1 (stereo unspecified) | > 100 |

System: SK-OV-3 ovarian
Assay: NCI tumour cell line growth inhibition, 48 h

| SMILES | TGI [µM] |
| --- | --- |
| O=C(Cn1nnc(-c2ccccc2)n1)N/N=C/c1cn(Cc2ccc(Cl)cc2Cl)c2ccccc12 | > 100 |
| CCOC(=O)N1CCC2(CC1)CC(=O)N(Nc1ccccc1)C2=O | > 100 |
| O=C1CNN=C(CSc2nc3ccc(I)cc3c(=O)n2Cc2ccccc2)N1 | > 100 |
| [N-]=[N+]=NCC1OCC(O)C(OCc2ccccc2)C1OCc1ccccc1 (stereo unspecified) | > 100 |

System: SN12C renal
Assay: NCI tumour cell line growth inhibition, 48 h

| SMILES | TGI [µM] |
| --- | --- |
| O=C(Cn1nnc(-c2ccccc2)n1)N/N=C/c1cn(Cc2ccc(Cl)cc2Cl)c2ccccc12 | > 100 |
| CC(C)N(C(=O)C12C3(C(=O)OC(C)(C)C)C4C5(C#N)C3C1(C(=O)OC(C)(C)C)C5C42C(=O)OC(C)(C)C)C(C)C (stereo unspecified) | > 100 |
| CCOC(=O)N1CCC2(CC1)CC(=O)N(Nc1ccccc1)C2=O | > 100 |
| O=C1CNN=C(CSc2nc3ccc(I)cc3c(=O)n2Cc2ccccc2)N1 | 34.3 |
| [N-]=[N+]=NCC1OCC(O)C(OCc2ccccc2)C1OCc1ccccc1 (stereo unspecified) | > 100 |

System: SNB-19 CNS
Assay: NCI tumour cell line growth inhibition, 48 h

| SMILES | TGI [µM] |
| --- | --- |
| O=C(Cn1nnc(-c2ccccc2)n1)N/N=C/c1cn(Cc2ccc(Cl)cc2Cl)c2ccccc12 | > 100 |
| CC(C)N(C(=O)C12C3(C(=O)OC(C)(C)C)C4C5(C#N)C3C1(C(=O)OC(C)(C)C)C5C42C(=O)OC(C)(C)C)C(C)C (stereo unspecified) | > 100 |
| CCOC(=O)N1CCC2(CC1)CC(=O)N(Nc1ccccc1)C2=O | > 100 |
| O=C1CNN=C(CSc2nc3ccc(I)cc3c(=O)n2Cc2ccccc2)N1 | > 100 |
| [N-]=[N+]=NCC1OCC(O)C(OCc2ccccc2)C1OCc1ccccc1 (stereo unspecified) | > 100 |

System: SNB-75 CNS
Assay: NCI tumour cell line growth inhibition, 48 h

| SMILES | TGI [µM] |
| --- | --- |
| O=C(Cn1nnc(-c2ccccc2)n1)N/N=C/c1cn(Cc2ccc(Cl)cc2Cl)c2ccccc12 | > 100 |
| CC(C)N(C(=O)C12C3(C(=O)OC(C)(C)C)C4C5(C#N)C3C1(C(=O)OC(C)(C)C)C5C42C(=O)OC(C)(C)C)C(C)C (stereo unspecified) | 41.8 |
| CCOC(=O)N1CCC2(CC1)CC(=O)N(Nc1ccccc1)C2=O | > 100 |
| O=C1CNN=C(CSc2nc3ccc(I)cc3c(=O)n2Cc2ccccc2)N1 | 35.8 |
| [N-]=[N+]=NCC1OCC(O)C(OCc2ccccc2)C1OCc1ccccc1 (stereo unspecified) | > 100 |

System: SR leukemia
Assay: NCI tumour cell line growth inhibition, 48 h

| SMILES | TGI [µM] |
| --- | --- |
| O=C(Cn1nnc(-c2ccccc2)n1)N/N=C/c1cn(Cc2ccc(Cl)cc2Cl)c2ccccc12 | > 100 |
| CC(C)N(C(=O)C12C3(C(=O)OC(C)(C)C)C4C5(C#N)C3C1(C(=O)OC(C)(C)C)C5C42C(=O)OC(C)(C)C)C(C)C (stereo unspecified) | 69.6 |
| CCOC(=O)N1CCC2(CC1)CC(=O)N(Nc1ccccc1)C2=O | > 100 |
| O=C1CNN=C(CSc2nc3ccc(I)cc3c(=O)n2Cc2ccccc2)N1 | 92.3 |
| [N-]=[N+]=NCC1OCC(O)C(OCc2ccccc2)C1OCc1ccccc1 (stereo unspecified) | > 100 |

System: SW-620 colon
Assay: NCI tumour cell line growth inhibition, 48 h

| SMILES | TGI [µM] |
| --- | --- |
| O=C(Cn1nnc(-c2ccccc2)n1)N/N=C/c1cn(Cc2ccc(Cl)cc2Cl)c2ccccc12 | > 100 |
| CC(C)N(C(=O)C12C3(C(=O)OC(C)(C)C)C4C5(C#N)C3C1(C(=O)OC(C)(C)C)C5C42C(=O)OC(C)(C)C)C(C)C (stereo unspecified) | > 100 |
| CCOC(=O)N1CCC2(CC1)CC(=O)N(Nc1ccccc1)C2=O | > 100 |
| O=C1CNN=C(CSc2nc3ccc(I)cc3c(=O)n2Cc2ccccc2)N1 | > 100 |
| [N-]=[N+]=NCC1OCC(O)C(OCc2ccccc2)C1OCc1ccccc1 (stereo unspecified) | > 100 |

System: T-47D breast
Assay: NCI tumour cell line growth inhibition, 48 h

| SMILES | TGI [µM] |
| --- | --- |
| O=C(Cn1nnc(-c2ccccc2)n1)N/N=C/c1cn(Cc2ccc(Cl)cc2Cl)c2ccccc12 | > 100 |
| CC(C)N(C(=O)C12C3(C(=O)OC(C)(C)C)C4C5(C#N)C3C1(C(=O)OC(C)(C)C)C5C42C(=O)OC(C)(C)C)C(C)C (stereo unspecified) | > 100 |
| CCOC(=O)N1CCC2(CC1)CC(=O)N(Nc1ccccc1)C2=O | > 100 |
| O=C1CNN=C(CSc2nc3ccc(I)cc3c(=O)n2Cc2ccccc2)N1 | 43.5 |
| [N-]=[N+]=NCC1OCC(O)C(OCc2ccccc2)C1OCc1ccccc1 (stereo unspecified) | > 100 |

System: TK-10 renal
Assay: NCI tumour cell line growth inhibition, 48 h

| SMILES | TGI [µM] |
| --- | --- |
| O=C(Cn1nnc(-c2ccccc2)n1)N/N=C/c1cn(Cc2ccc(Cl)cc2Cl)c2ccccc12 | > 100 |
| CC(C)N(C(=O)C12C3(C(=O)OC(C)(C)C)C4C5(C#N)C3C1(C(=O)OC(C)(C)C)C5C42C(=O)OC(C)(C)C)C(C)C (stereo unspecified) | > 100 |
| CCOC(=O)N1CCC2(CC1)CC(=O)N(Nc1ccccc1)C2=O | > 100 |
| O=C1CNN=C(CSc2nc3ccc(I)cc3c(=O)n2Cc2ccccc2)N1 | 78.3 |
| [N-]=[N+]=NCC1OCC(O)C(OCc2ccccc2)C1OCc1ccccc1 (stereo unspecified) | > 100 |

System: U251 CNS
Assay: NCI tumour cell line growth inhibition, 48 h

| SMILES | TGI [µM] |
| --- | --- |
| O=C(Cn1nnc(-c2ccccc2)n1)N/N=C/c1cn(Cc2ccc(Cl)cc2Cl)c2ccccc12 | > 100 |
| CC(C)N(C(=O)C12C3(C(=O)OC(C)(C)C)C4C5(C#N)C3C1(C(=O)OC(C)(C)C)C5C42C(=O)OC(C)(C)C)C(C)C (stereo unspecified) | > 100 |
| CCOC(=O)N1CCC2(CC1)CC(=O)N(Nc1ccccc1)C2=O | > 100 |
| O=C1CNN=C(CSc2nc3ccc(I)cc3c(=O)n2Cc2ccccc2)N1 | 52 |
| [N-]=[N+]=NCC1OCC(O)C(OCc2ccccc2)C1OCc1ccccc1 (stereo unspecified) | > 100 |

System: UACC-257 melanoma
Assay: NCI tumour cell line growth inhibition, 48 h

| SMILES | TGI [µM] |
| --- | --- |
| O=C(Cn1nnc(-c2ccccc2)n1)N/N=C/c1cn(Cc2ccc(Cl)cc2Cl)c2ccccc12 | > 100 |
| CC(C)N(C(=O)C12C3(C(=O)OC(C)(C)C)C4C5(C#N)C3C1(C(=O)OC(C)(C)C)C5C42C(=O)OC(C)(C)C)C(C)C (stereo unspecified) | > 100 |
| CCOC(=O)N1CCC2(CC1)CC(=O)N(Nc1ccccc1)C2=O | > 100 |
| O=C1CNN=C(CSc2nc3ccc(I)cc3c(=O)n2Cc2ccccc2)N1 | 70.7 |
| [N-]=[N+]=NCC1OCC(O)C(OCc2ccccc2)C1OCc1ccccc1 (stereo unspecified) | > 100 |

System: UACC-62 melanoma
Assay: NCI tumour cell line growth inhibition, 48 h

| SMILES | TGI [µM] |
| --- | --- |
| O=C(Cn1nnc(-c2ccccc2)n1)N/N=C/c1cn(Cc2ccc(Cl)cc2Cl)c2ccccc12 | > 100 |
| CC(C)N(C(=O)C12C3(C(=O)OC(C)(C)C)C4C5(C#N)C3C1(C(=O)OC(C)(C)C)C5C42C(=O)OC(C)(C)C)C(C)C (stereo unspecified) | > 100 |
| CCOC(=O)N1CCC2(CC1)CC(=O)N(Nc1ccccc1)C2=O | > 100 |
| O=C1CNN=C(CSc2nc3ccc(I)cc3c(=O)n2Cc2ccccc2)N1 | 32.6 |
| [N-]=[N+]=NCC1OCC(O)C(OCc2ccccc2)C1OCc1ccccc1 (stereo unspecified) | > 100 |

System: UO-31 renal
Assay: NCI tumour cell line growth inhibition, 48 h

| SMILES | TGI [µM] |
| --- | --- |
| O=C(Cn1nnc(-c2ccccc2)n1)N/N=C/c1cn(Cc2ccc(Cl)cc2Cl)c2ccccc12 | > 100 |
| CC(C)N(C(=O)C12C3(C(=O)OC(C)(C)C)C4C5(C#N)C3C1(C(=O)OC(C)(C)C)C5C42C(=O)OC(C)(C)C)C(C)C (stereo unspecified) | > 100 |
| CCOC(=O)N1CCC2(CC1)CC(=O)N(Nc1ccccc1)C2=O | > 100 |
| O=C1CNN=C(CSc2nc3ccc(I)cc3c(=O)n2Cc2ccccc2)N1 | 4.37 |
| [N-]=[N+]=NCC1OCC(O)C(OCc2ccccc2)C1OCc1ccccc1 (stereo unspecified) | > 100 |
